Reference: US10017520B2, “Myc modulators and uses thereof” (Massachusetts Institute of Technology, priority 2014, dated 2018)

The compounds below were run on c-Myc (assay: c-Myc reporter gene assay (Qiagen) in HEK293T cells). Details: Homo sapiens, HEK-293T, 16 h, treatment 16 hours, Firefly/Renilla ratio.
Assay type: cell-based
Method: Compound 1's activity against Myc was measured as a Firefly/Renilla ratio, using the Myc reporter assay (Qiagen) in HEK293T cells after treatment with compound 1 for 16 hours. Results are expressed as a mean+/−SD (n=3). SD: standard deviation.
Select compounds described herein that were SMM assay positives were evaluated in several versions of a c-Myc reporter gene assay, including a commercial assay from Qiagen. The compounds' activities against c-Myc were measured as a Firefly/Renilla ratio, using the Myc reporter assay (Qiagen) in HEK293T cells after treatment with the compounds for 16 hours.
`CC(C)(C)OC(=O)CN1C(=O)S/C(=C\c2ccc(Sc3nc4ccccc4[nH]3)o2)C1=O` [Compound 14, (Z)-tert-butyl 2-(5-((5-((1H-benzo[d]imidazol-2-yl)thio)furan-2-yl)methylene)-2,4-dioxothiazolidin-3-yl)acetate] was tested, and the IC50 was 1.96 µM. In the case of `COC(=O)CN1C(=O)S/C(=C\c2ccc(Sc3nc4ccccc4[nH]3)o2)C1=O` [Compound 15, (Z)-methyl 2-(5-((5-((1H-benzo[d]imidazol-2-yl)thio)furan-2-yl)methylene)-2,4-dioxothiazolidin-3-yl)acetate], the IC50 is reported as 3.26 µM. `CC(C)N1C(=O)S/C(=C\c2ccc(Sc3ncc[nH]3)o2)C1=O` [Compound 16, (Z)-5-((5-((1H-imidazol-2-yl)thio)furan-2-yl)methylene)-3-isopropylthiazolidine-2,4-dione] was tested, and the IC50 was 20.8 µM. `CC(C)N1C(=O)S/C(=C\c2ccc(Sc3ccccn3)o2)C1=O` [Compound 17, (Z)-3-isopropyl-5-((5-(pyridin-2-ylthio)furan-2-yl)methylene)thiazolidine-2,4-dione] was tested, and the IC50 was 7.67 µM. `CC(C)N1C(=O)S/C(=C\c2ccc(Sc3nc4ccccc4n3C)o2)C1=O` [Compound 18, (Z)-3-isopropyl-5-((5-((1-methyl-1H-benzo[d]imidazol-2-yl)thio)furan-2-yl)methylene)thiazolidine-2,4-dione] was tested, and the IC50 was 1.67 µM. In the case of `NCCCN1C(=O)S/C(=C\c2ccc(Sc3nc4ccccc4[nH]3)o2)C1=O` [Compound 19, (Z)-5-((5-((1H-benzo[d]imidazol-2-yl)thio)furan-2-yl)methylene)-3-(3-aminopropyl)thiazolidine-2,4-dione 2,2,2-trifluoroacetate], the IC50 is reported as 7.3 µM. With `O=C(NCCCN1C(=O)S/C(=C\c2ccc(Sc3nc4ccccc4[nH]3)o2)C1=O)Nc1ccccc1` [Compound 20, (Z)-1-(3-(5-((5-((1H-benzo[d]imidazol-2-yl)thio)furan-2-yl)methylene)-2,4-dioxothiazolidin-3-yl)propyl)-3-phenylurea] the IC50 was 1.22 µM. `CCNC(=O)NCCCN1C(=O)S/C(=C\c2ccc(Sc3nc4ccccc4[nH]3)o2)C1=O` [Compound 21] showed an IC50 of 6.77 µM. Compound `CCC(C)N1C(=O)S/C(=C\c2ccc(Sc3nc4ccccc4[nH]3)o2)C1=O` (stereo not drawn) [Compound 31] has an IC50 of 2.22 µM. `COC(=O)C(C)N1C(=O)S/C(=C\c2ccc(Sc3nc4ccccc4[nH]3)o2)C1=O` (stereo not drawn) [Compound 32] showed an IC50 of 6.24 µM. With `O=C(CN1C(=O)S/C(=C\c2ccc(Sc3nc4ccccc4[nH]3)o2)C1=O)N1CCN(c2ccccc2)CC1` [Compound 34] the IC50 was 7.01 µM. `O=C1S/C(=C\c2ccc(Sc3nc4ccccc4[nH]3)o2)C(=O)N1c1ccccc1` [Compound 35] was tested, and the IC50 was 11.9 µM. For `CC(/C=C1\SC(=O)N(C(C)C)C1=O)=C\c1ccccc1` [Compound 37], the IC50 was > 100 µM. With `COC(=O)C(C)N1C(=O)S/C(=C\C=C\c2ccco2)C1=O` (stereo not drawn) [Compound 38] the IC50 was > 100 µM. `Cc1ccc(Sc2ccc(/C=C3\SC(=O)N(C(C)C)C3=O)o2)cc1` [Compound 39] was tested, and the IC50 was > 100 µM. `O=C(Nc1ccccc1)c1ccc(Sc2nc3ccccc3[nH]2)o1` [Compound 42, 5-((1H-benzo[d]imidazol-2-yl)thio)-N-phenylfuran-2-carboxamide] gave an IC50 of 3.32 µM. Work on `CC(C)NC(=O)c1ccc(Sc2nc3ccccc3[nH]2)o1` [Compound 43, 5-((1H-benzo[d]imidazol-2-yl)thio)-N-isopropylfuran-2-carboxamide] yielded an IC50 of 7.9 µM. `c1ccc(NCc2ccc(Sc3nc4ccccc4[nH]3)o2)cc1` [Compound 45, N-((5-((1H-benzo[d]imidazol-2-yl)thio)furan-2-yl)methyl)aniline] was tested, and the IC50 was 4.66 µM. For `CC(C)NCc1ccc(Sc2nc3ccccc3[nH]2)o1` [Compound 46], the IC50 was 57.5 µM. `c1ccc2[nH]c(Sc3ccc(CN4CCOCC4)o3)nc2c1` [Compound 47, 4-((5-((1H-benzo[d]imidazol-2-yl)thio)furan-2-yl)methyl)morpholine] showed an IC50 of 32.9 µM. `CCN1CCN(Cc2ccc(Sc3nc4ccccc4[nH]3)o2)CC1` [Compound 48, 2-((5-((4-ethylpiperazin-1-yl)methyl)furan-2-yl)thio)-1H-benzo[d]imidazole] gave an IC50 of 10.2 µM. `CN(C)Cc1ccc(Sc2nc3ccccc3[nH]2)o1` [Compound 49, 1-(5-((1H-benzo[d]imidazol-2-yl)thio)furan-2-yl)-N,N-dimethylmethanamine] showed an IC50 of 59.4 µM. `COC(=O)CNCc1ccc(Sc2nc3ccccc3[nH]2)o1` [Compound 50, Methyl 2-(((5-((1H-benzo[d]imidazol-2-yl)thio)furan-2-yl)methyl)amino)acetate] was tested, and the IC50 was 75.9 µM. `CC(C)N1C(=O)S/C(=C\c2ccc(Sc3nc4ccc(OC(F)(F)F)cc4[nH]3)o2)C1=O` [Compound 56, (Z)-3-isopropyl-5-((5-((6-(trifluoromethoxy)-1H-benzo[d]imidazol-2-yl)thio)furan-2-yl)methylene)thiazolidine-2,4-dione] was tested, and the IC50 was 0.44 µM. `CC(C)N1C(=O)S/C(=C\c2ccc(Sc3nc4ccc([N+](=O)[O-])cc4[nH]3)o2)C1=O` [Compound 57, (Z)-3-isopropyl-5-((5-((6-nitro-1H-benzo[d]imidazol-2-yl)thio)furan-2-yl)methylene)thiazolidine-2,4-dione] showed an IC50 of 0.36 µM. `CC(=O)c1ccc2nc(Sc3ccc(/C=C4\SC(=O)N(C(C)C)C4=O)o3)[nH]c2c1` [Compound 58, (Z)-5-((5-((6-acetyl-H-benzo[d]imidazol-2-yl)thio)furan-2-yl)methylene)-3-isopropylthiazolidine-2,4-dione] gave an IC50 of 0.26 µM. `CC(C)N1C(=O)S/C(=C\c2ccc(Sc3nc4ccc(N)cc4[nH]3)o2)C1=O` [Compound 60, (Z)-5-((5-((6-amino-1H-benzo[d]imidazol-2-yl)thio)furan-2-yl)methylene)-3-isopropylthiazolidine-2,4-dione] gave an IC50 of 4.56 µM. For `CC(C)N1C(=O)S/C(=C\c2ccc(Sc3nc4ccc(NC(=O)c5ccccc5)cc4[nH]3)o2)C1=O` [Compound 61, (Z)—N-(2-((5-((3-isopropyl-2,4-dioxothiazolidin-5-ylidene)methyl)furan-2-yl)thio)-1H-benzo[d]imidazol-6-yl)benzamide], the IC50 was 0.4 µM. Work on `CC(=O)Nc1ccc2nc(Sc3ccc(/C=C4\SC(=O)N(C(C)C)C4=O)o3)[nH]c2c1` [Compound 62, (Z)—N-(2-((5-((3-isopropyl-2,4-dioxothiazolidin-5-ylidene)methyl)furan-2-yl)thio)-1H-benzo[d]imidazol-6-yl)acetamide] yielded an IC50 of 0.93 µM. `COC(=O)c1ccc2nc(Sc3ccc(/C=C4\SC(=O)N(C(C)C)C4=O)o3)[nH]c2c1` [Compound 63, (Z)-methyl 2-((5-((3-isopropyl-2,4-dioxothiazolidin-5-ylidene)methyl)furan-2-yl)thio)-1H-benzo[d]imidazole-6-carboxylate] gave an IC50 of 1.49 µM. `CC(C)N1C(=O)S/C(=C\c2ccc(Sc3nc4ccccc4[nH]3)cc2)C1=O` [Compound 64, (Z)-5-(4-((1H-benzo[d]imidazol-2-yl)thio)benzylidene)-3-isopropylthiazolidine-2,4-dione] was tested, and the IC50 was 1.82 µM. `CC(C)N1C(=O)S/C(=C\c2cccc(Oc3nc4ccccc4[nH]3)c2)C1=O` [Compound 65, (Z)-5-(3-((1H-benzo[d]imidazol-2-yl)oxy)benzylidene)-3-isopropylthiazolidine-2,4-dione] was tested, and the IC50 was 0.99 µM. Compound `O=C1CSC(=O)N1Cc1ccc(Sc2nc3ccccc3[nH]2)o1` [Compound 67, 3-((5-((1H-benzo[d]imidazol-2-yl)thio)furan-2-yl)methyl)thiazolidine-2,4-dione] has an IC50 of 30 µM. With `CC(C)N1C(=O)S/C(=C\c2cc3ccc(Sc4nc5ccccc5[nH]4)cc3o2)C1=O` [Compound 68, (Z)-5-((6-((1H-benzo[d]imidazol-2-yl)thio)benzofuran-2-yl)methylene)-3-isopropylthiazolidine-2,4-dione] the IC50 was 0.54 µM.

Same assay, conditions: Homo sapiens, HEK-293T, treatment 16 hours, Firefly/Renilla ratio
`CC(C)N1C(=O)S/C(=C\c2ccc(Sc3nc4ccccc4[nH]3)s2)C1=O` [Compound 11, (Z)-5-((5-((1H-benzo[d]imidazol-2-yl)thio)thiophen-2-yl)methylene)-3-isopropylthiazolidine-2,4-dione] was tested, and the IC50 was 1.62 µM. `CN1C(=O)C(=Cc2ccc(Sc3nc4ccccc4[nH]3)o2)C(=O)N(C)C1=O` [Compound 53, 5-((5-((1H-benzo[d]imidazol-2-yl)thio)furan-2-yl)methylene)-1,3-dimethylpyrimidine-2,4,6(1H,3H,5H)-trione] was tested, and the IC50 was 26.8 µM.

Same assay, conditions: treatment 16 hours, Firefly/Renilla ratio
With `O=C(O)CN1C(=O)S/C(=C\c2ccc(Sc3nc4ccccc4[nH]3)o2)C1=O` [Compound 13, (Z)-2-(5-((5-((1H-benzo[d]imidazol-2-yl)thio)furan-2-yl)methylene)-2,4-dioxothiazolidin-3-yl)acetic acid] the “c-Myc reporter assay IC50” value was “inactive”. `NCCCN1C(=O)S/C(=C\c2ccc(Sc3nc4ccccc4[nH]3)o2)C1=O` [Compound 19, (Z)-5-((5-((1H-benzo[d]imidazol-2-yl)thio)furan-2-yl)methylene)-3-(3-aminopropyl)thiazolidine-2,4-dione 2,2,2-trifluoroacetate] showed an IC50 of 6.52 µM. `O=C(O)c1ccc(Sc2nc3ccccc3[nH]2)o1` [Compound 41, 5-((1H-benzo[d]imidazol-2-yl)thio)furan-2-carboxylic acid] was tested, and the “c-Myc reporter assay IC50” value was “non active”. With `O=C(c1ccc(Sc2nc3ccccc3[nH]2)o1)N1CCOCC1` [Compound 44, (5-((1H-benzo[d]imidazol-2-yl)thio)furan-2-yl)(morpholino)methanone] the “c-Myc reporter assay IC50” value was “non active”. `COC(=O)c1ccc(Sc2nc3ccccc3[nH]2)o1` [Compound 51, Methyl 5-((1H-benzo[d]imidazol-2-yl)thio)furan-2-carboxylate] was tested, and the “c-Myc reporter assay IC50” value was “non active”. With `O=C1NC(=O)C(=Cc2ccc(Sc3nc4ccccc4[nH]3)o2)C(=O)N1` [Compound 54, 5-((5-((1H-benzo[d]imidazol-2-yl)thio)furan-2-yl)methylene)pyrimidine-2,4,6(1H,3H,5H)-trione] the “c-Myc reporter assay IC50” value was “non active”.
